This note sets out measurements from US11219623B2, “Inflammasome inhibition for the treatment of Parkinson's disease, Alzheimer's disease and multiple sclerosis” (University of Kentucky Research Foundation, priority 2015, dated 2022).

Usually solubility stands for the concentration that dissolves in the medium under given conditions. The logP is a log measure of how a compound divides between an organic and an aqueous phase.

Structures are written as SMILES. ≈ marks a conversion by molar mass, not a printed value.

The nature of one data set: Solubility in water. It counts as physicochemical. The note with it: aqueous buffer; Water pH 7.2 at 37° C.
In a further data set the test system is mtDNA. The data set can be described thus: Relative quantity of mtDNA, quantitative PCR, primary human RPE cells. Conditions: 50 μM; four days; relative to DMSO.
In data set [1] the test system is Caspase-1. The data set can be described thus: Iron (III) ammonium citrate-induced Caspase-1 activation, western blot, primary human RPE cells. It counts as cell-based. The note with it: 25 μM, Fe(III) ammonium citrate (100 μM). The text has this: Caspase-1 activation (p20 subunit) in primary human retinal pigment epithelium (RPE) cells in the presence of iron (III) ammonium citrate was studied.
Caspase-1 activation (p10 subunit) in primary human RPE cells in the presence of iron (III) ammonium citrate was studied.
Alu RNA is a toxic endogenous retroelement that accumulates in and causes death of the RPE in patients with dry AMD. […] FAC activates Caspase-1 via an Alu RNA intermediate, and induces NLRP3-dependent RPE degeneration (Gelfand et al. Cell Reports 2015). Fe(III) ammonium citrate (100 μM)-induced Caspase-1 activation in primary human RPE cells, monitored by western blotting, is reduced by TM-3TC (25 μM), d4T-ene (25 μM), 2Me-d4T (25 μM), Me-AZT (25-100 μM), and 2Me-AZT (25 μM). N=3-4.
For orientation: In western blotting, separated proteins are transferred to a membrane and probed.

Data set [2] relates to GFP-expressing lentivirus. The data set can be described thus: GFP-expressing lentivirus transduction/replication assay in HeLa cells. It counts as cell-based. The note with it: for lentivirus replication (GFP-positive cells per field): 10 μM, 72 hours, MOI 20. The procedure:
All drugs were added at a concentration of 10 μM. Cells were imaged for GFP expression 72 hours after addition of lentivirus. GFP-positive cells per field of view were recorded. n=4-11, error bars S.E.M. Reverse transcription of lentivirus is essential for GFP expression; modified NRTIs should not block reverse transcriptase, whereas NRTIs are known to block reverse transcriptase.
The present disclosure further provides the results of additional experiments in FIG. 21-FIG. 23.

A short description of data set [3]: LogP, partition coefficient in 1-octanol. The note with it: 1-octanol partition. It counts as physicochemical.
For data set [4], the system named is wild-type mice. The data set can be described thus: pAlu-induced RPE degeneration, mouse model of dry AMD. Conditions: intraperitoneal 25 mg/kg twice daily. It counts as in vivo. The protocol:
Mouse studies were conducted to study treatment with NRTIs or derivatives.

The test system of data set [5] is human LINE-1 retrotransposon. The data set can be described thus: EGFP cell culture L1 retrotransposition assay in HeLa cells. It counts as cell-based. The note with it: 7 days after transfection, flow cytometry. The protocol: These findings pave way for the rational re-design and improvement of nucleoside analogs as novel therapeutics. The enhanced green fluorescent protein (EGFP) cell culture L1 retrotransposition assay was performed in HeLa cells. […] Transfected cells were selected in puromycin. 7 days after transfection, cells that underwent retrotransposition (EGFP-positive) were assayed by flow cytometry. Cells were gated based on background fluorescence of plasmid JM111, which has two point mutations in L1-ORF1 that abolish retrotransposition. Data are normalized with RPS set to 1.

Data set [6] relates to mice. In words: Amyloid beta-induced RPE degeneration in mice. It counts as in vivo, mouse. The note with it: intraperitoneal 25 mg/kg days 1 to 6; read day 7.
In data set [7] the test system is wild-type mice. In words: Poly IC-induced RPE degeneration in mice. Conditions: intravitreous; measured 7 days after poly IC. It counts as in vivo, mouse.
In data set [8] the test system is mice. The data set can be described thus: Iron-induced RPE degeneration in mice. It counts as in vivo, mouse. The note with it: intraperitoneal 25 mg/kg days 1 to 6; read day 7.
In data set [9] the test system is wild-type mice. In words: Laser-induced choroidal neovascularization (CNV; wet AMD) in wild-type mice. The note with it: intravitreous 0.14 nmol; day 7; N=16.
For data set [10], the system named is Caspase-1. In words: Alu RNA-induced Caspase-1 activation, western blot, primary human RPE cells. It counts as cell-based. Conditions: concentration not given. The text has this:
The bottom row in FIG. 5 is a vinculin loading control.

The test system of data set [11] is wild-type mice. In words: Alu RNA-induced RPE degeneration, mouse model of dry AMD. The note with it: intraperitoneal injection; dose not stated.
Data set [12] deals with Caspase-1. The data set can be described thus: iGLuc luminescence assay of ATP-induced Caspase-1 activation in J774 iGLuc cells. It counts as cell-based, mouse. The procedure:
Caspase-1 is the enzyme at the core of the inflammasome complex and is an important danger response signal and mediator of RPE cell death in AMD. […] Importantly, there was some difference between individual compounds in terms of the dose response curve, emphasizing the need to test each compound (with unique R group(s)) individually.
To obtain the data set forth in FIGS. 64-73, an iGLuc assay was conducted (modified from Bartok et al. iGLuc: a luciferase-based inflammasome and protease activity reporter. Nature Methods 2013; 10(2):147-54). Briefly, 100,000 iGLuc cells per well were plated in a 96 well plate overnight. The next morning, media is aspirated from the plate and replaced with 75 μL of serum free DMEM with drugs (NRTIs or modified NRTIs) for 30 min. After 30 minutes of drug exposure, 20 mM ATP (25 μL) is added for a final concentration of 5 mM. 50 μL of media from each well is collected and 50 μL of coelenterazine 4.4 μM is added to each sample, and luminescence is read immediately.

For `COCC1C=C[C@H](n2cc(C)c(=O)n(C)c2=O)O1` (stereo partly drawn) [Kamuvudine 2Me-d4T, 1-[(2R)-5-(methoxymethyl)-2,5-dihydrofuran-2-yl]-3,5-dimethyl-1,2,3,4-tetrahydropyrimidine-2,4-dione], the concentration in solution in “Solubility in water” (solubility) was 10 mg/mL (≈ 39.6 mM). In the data set with mtDNA, the “relative quantity of mtDNA (mtDNA depletion)” value was “do not exhibit mtDNA depletion”. Moreover, the “iron-induced Caspase-1 activation” value with Caspase-1 [1] is “reduced”; in the data set with Caspase-1 [1] (listed as 2me-d4T) it was “blocked iron-induced Caspase-1 activation”. Also, in data set [2], the “lentivirus replication (GFP-positive cells per field)” value is given as “do not block lentivirus replication”. This compound displayed a logP in data set [3] of 0.63. Moreover, in the data set on wild-type mice [4], the “pAlu-induced RPE degeneration” value is “restored to healthy RPE morphology/intercellular junctions”. Further, in [5], the “L1 retrotransposition (EGFP-positive cells)” value is recorded as “no effect on L1 activity”. For the same compound, in the data set with mice [6], the “Amyloid beta-induced RPE degeneration” value is “blocked the development of RPE degeneration”. Moreover, the “poly IC-induced RPE degeneration” value in the data set with wild-type mice [7] is reported as “blocks this degeneration”. Also, the “Iron-induced RPE degeneration” value in the data set on mice [8] was “blocked the development of RPE degeneration”.

`COC[C@@H]1C=C[C@H](n2cc(C)c(=O)[nH]c2=O)O1` [Me-d4T, 1-[(2R,5S)-5-(methoxymethyl)-2,5-dihydrofuran-2-yl]-5-methyl-1,2,3,4-tetrahydropyrimidine-2,4-dione]: the “choroidal neovascularization (CNV) volume” value with wild-type mice [9] is given as “reduced choroidal neovascularization (CNV) volume”. Besides, the “Alu RNA-induced Caspase-1 activation/cleavage” value with Caspase-1 [10] is recorded as “blocks Caspase-1 activation”. Also, the “Alu-induced RPE degeneration” value in the data set with wild-type mice [11] was “prevents Alu-induced RPE degeneration”. In addition, the concentration in solution in “Solubility in water” (solubility) was 30 mg/mL (≈ 126 mM). Also, in the data set on mtDNA, the “relative quantity of mtDNA (mtDNA depletion)” value is “do not exhibit mtDNA depletion”. The “Caspase-1 cleavage (luminescence)” value in the data set with Caspase-1 [12] (ATP 5 mM, drug 100 μM, N=3) was “reduces Caspase-1 cleavage in a dose-dependent fashion”. In the data set with Caspase-1 [12] (ATP (5 mM), mouse J774 iGLuc cells, FIGS. 70-73), the “reduction of inflammasome activation” value is recorded as “about 70%”. Besides, the “lentivirus replication (GFP-positive cells per field)” value in data set [2] is recorded as “do not block lentivirus replication”. Moreover, the “replication of GFP-expressing lentivirus” value in data set [2] (FIG. 22, concentration not given) is “does not block lentivirus replication”. The log partition coefficient (logP) in [3] was 0.41. In addition, the “L1 retrotransposition (EGFP-positive cells)” value in [5] is listed as “no effect on L1 activity”. Also, the “poly IC-induced RPE degeneration” value with wild-type mice [7] was “blocks this degeneration”. The “Iron-induced RPE degeneration” value with mice [8] is reported as “blocked the development of RPE degeneration”.
